Reference: patent publication US20160304466A1, “NOVEL COMPOUNDS AS JNK KINASE INHIBITORS” (THE SCRIPPS RESEARCH INSTITUTE, priority 2013, published 2016)
pEC50: −log10 of the molar value.

Tests used:
[1] = biological target: JNK1α1/SAP1α, Active (Homo sapiens, UniProt P45983); assay: Biochemical inhibition of JNK1; settings: for IC50: Table 2, compounds of formula (II), read-out: JNK1 (nM) JNK activity (IC50); for pEC50: Table 1, compounds of formula (I), mean of n repeats
[2] = biological target: JNK3/SAPK1b, Active (activated JNK3α1) (Homo sapiens, UniProt P53779); assay: Biochemical inhibition of JNK3 (HTRF enzyme inhibition assay); settings: for IC50: Table 2, compounds of formula (II), read-out: JNK3 (nM) JNK activity (IC50); for pEC50: Table 1, compounds of formula (I), mean of n repeats
Chain of JNK3/SAPK1b, Active (activated JNK3α1) (P53779 1-422 isoform P53779-2): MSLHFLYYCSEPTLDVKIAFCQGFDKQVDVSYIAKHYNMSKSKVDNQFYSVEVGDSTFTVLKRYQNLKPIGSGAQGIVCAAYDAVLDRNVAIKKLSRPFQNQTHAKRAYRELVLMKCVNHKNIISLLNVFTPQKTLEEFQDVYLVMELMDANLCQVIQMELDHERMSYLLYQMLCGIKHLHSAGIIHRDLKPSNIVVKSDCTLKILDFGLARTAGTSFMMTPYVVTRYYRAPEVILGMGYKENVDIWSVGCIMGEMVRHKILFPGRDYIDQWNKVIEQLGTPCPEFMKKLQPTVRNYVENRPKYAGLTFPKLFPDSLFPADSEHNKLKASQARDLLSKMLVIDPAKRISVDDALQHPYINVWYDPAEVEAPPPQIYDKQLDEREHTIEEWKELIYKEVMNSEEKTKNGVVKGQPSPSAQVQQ
Method: Enzyme inhibition studies were performed in 384-well polystyrene HTRF plates (Grainier) for 22 min at ambient temperature (˜22° C.) with 0.2 μM biotinylated FL-ATF2, 1 μM ATP, 0.75 nM activated JNK3α1 (with a control in the absence of kinase for determining the basal signal) in 10 μL volumes containing the final concentrations of the following: 50 mM Hepes, pH 7.0, 2.5 mM MgCl2, 0.1 mg/ml bovine serum albumin, 1 mM DL-dithiothreitol, 0.01% Triton X-100 (all from Sigma-Aldrich), and 5% DMSO (with or without compound). A 10 point titration of all compounds was carried out in 3-fold dilutions from 10 pM-2000 nM. After 22 min, the kinase reaction was terminated by addition of 10 μl of quenching solution [50 mM Hepes, pH 7.0, with 14 mM EDTA, 0.01% Triton X-100, 400 mM KF (all from Sigma-Aldrich)]. The detection reagents, streptavidin-x1APC (200 nM) and europium cryptate-labeled rabbit polyclonal anti-phospho-ATF2 (1 nM), were from Cis-Bio. The HTRF signal was detected using an Envision plate reader (Perkin Elmer) 1 h post-quenching. The data from multiple different experiments were averaged and presented as the mean±standard deviation. IC50 values were determined by fitting the data to the equation for a four-parameter logistic. p38 enzyme inhibition assays were performed identically to the JNK3 assays with the exception that the reaction time was […], 0.5 μM biotinylated FL-ATF2, ATP=11 μM, and p38 (Millipore)=3 nM.

[3] = biological target: JNK2α2/SAPK1c, active (Homo sapiens, UniProt P45984); assay: Biochemical inhibition of JNK2; settings: Table 1, compounds of formula (I); mean of n repeats
Chain of JNK2α2/SAPK1c, active (P45984 whole entry): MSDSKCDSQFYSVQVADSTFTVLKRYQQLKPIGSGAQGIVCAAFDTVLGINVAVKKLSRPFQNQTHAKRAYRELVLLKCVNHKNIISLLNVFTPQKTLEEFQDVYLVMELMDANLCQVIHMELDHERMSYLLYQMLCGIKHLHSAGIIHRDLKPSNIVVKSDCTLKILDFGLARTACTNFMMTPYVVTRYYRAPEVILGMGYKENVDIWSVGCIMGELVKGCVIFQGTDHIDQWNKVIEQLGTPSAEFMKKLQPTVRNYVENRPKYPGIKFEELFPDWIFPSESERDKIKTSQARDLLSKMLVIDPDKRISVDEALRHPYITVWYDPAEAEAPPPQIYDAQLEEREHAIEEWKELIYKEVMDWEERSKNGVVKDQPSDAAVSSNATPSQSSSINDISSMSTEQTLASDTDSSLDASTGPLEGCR
Method: A 10 point titration of all compounds was carried out in 3-fold dilutions from 10 pM-2000 nM. After 22 min, the kinase reaction was terminated by addition of 10 μl of quenching solution [50 mM Hepes, pH 7.0, with 14 mM EDTA, 0.01% Triton X-100, 400 mM KF (all from Sigma-Aldrich)]. The detection reagents, streptavidin-x1APC (200 nM) and europium cryptate-labeled rabbit polyclonal anti-phospho-ATF2 (1 nM), were from Cis-Bio. The HTRF signal was detected using an Envision plate reader (Perkin Elmer) 1 h post-quenching. The data from multiple different experiments were averaged and presented as the mean±standard deviation.

Chain of JNK1α1/SAP1α, Active (P45983 1-384 isoform P45983-2): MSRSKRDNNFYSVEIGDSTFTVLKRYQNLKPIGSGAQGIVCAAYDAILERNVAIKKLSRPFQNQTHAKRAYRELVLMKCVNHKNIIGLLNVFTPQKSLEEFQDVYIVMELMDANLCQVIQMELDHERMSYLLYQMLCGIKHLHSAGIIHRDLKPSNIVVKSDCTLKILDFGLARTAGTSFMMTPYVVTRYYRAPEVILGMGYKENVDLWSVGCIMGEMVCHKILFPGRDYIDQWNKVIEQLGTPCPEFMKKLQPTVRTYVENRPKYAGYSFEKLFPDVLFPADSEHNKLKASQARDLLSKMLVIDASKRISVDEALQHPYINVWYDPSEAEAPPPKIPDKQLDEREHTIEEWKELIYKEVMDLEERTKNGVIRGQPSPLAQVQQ

SMILES	IC50 [1]	IC50 [2]	pEC50 [1]	pEC50 [3]	pEC50 [2]
O=C(NC1CCCC1)N[C@H]1CC[C@H](Nc2ncc3ccc(=O)[nH]c3n2)CC1 [Example II-28]	200 to 1000 nM	200 to 1000 nM	–	–	–
CCNC(=O)N1CCC(Nc2ncc3ccc(C4CC4)nc3n2)CC1 [Example II-42, 4-((7-cyclopropylpyrido[2,3-d]pyrimidin-2-yl)amino)-N-ethylpiperidine-1-carboxamide]	> 1000 nM	–	–	–	–
CC(C)n1cc(NC(=O)c2cccc(-n3cc(NC(=O)Nc4ccccc4Cl)cn3)c2)cn1 [Example I-86, 3-(4-(3-(2-chlorophenyl)ureido)-1H-pyrazol-1-yl)-N-(1-isopropyl-1H-pyrazol-4-yl)benzamide]	–	–	< 6.00	6.00 to 6.70	> 6.70
O=c1ccc2cnc(N[C@H]3CC[C@H](O)CC3)nc2n1C1CCCC1 [Example II-20, Trans-8-Cyclopentyl-2-(4-hydroxy-cyclohexylamino)-8H-pyrido[2,3-d]pyrimidin-7-one]	< 200 nM	< 200 nM	–	–	–
Cc1nn(CCN2CCCC2)cc1NC(=O)c1cccc(-n2cc(NC(=O)Nc3ccccc3Cl)cn2)c1 [Example I-104, 3-(4-(3-(2-chlorophenyl)ureido)-1H-pyrazol-1-yl)-N-(3-methyl-1-(2-(pyrrolidin-1-yl)ethyl)-1H-pyrazol-4-yl)benzamide]	–	–	< 6.00	> 6.70	> 6.70
Cn1c(=O)ccc2cnc(N[C@H]3CC[C@H](O)CC3)nc21 [Example II-29, Trans 2-((4-hydroxycyclohexyl)amino)-8-methylpyrido[2,3-d]pyrimidin-7(8H)-one]	< 200 nM	< 200 nM	–	–	–
Cc1cc(NC(=O)c2cccc(-n3cc(NC(=O)Nc4ccccc4C)cn3)c2)ccn1 [Example I-51, N-(2-methylpyridin-4-yl)-3-(4-(3-(o-tolyl)ureido)-1H-pyrazol-1-yl)benzamide]	–	–	6.00 to 6.70	> 6.70	> 6.70
Cc1cc(NC(=O)c2cccc(-n3cc(NC(=O)Nc4ccccc4Cl)cn3)c2)cc(C)n1 [Example I-22, 3-(4-(3-(2-chlorophenyl)ureido)-1H-pyrazol-1-yl)-N-(2,6-dimethylpyridin-4-yl)benzamide]	–	–	< 6.00	6.00 to 6.70	> 6.70
Cn1nc(C2CC2)cc1NC(=O)c1cccc(-n2cc(NC(=O)Nc3ccccc3Cl)cn2)c1 [Example I-89, 3-(4-(3-(2-chlorophenyl)ureido)-1H-pyrazol-1-yl)-N-(3-cyclopropyl-1-methyl-1 H-pyrazol-5-yl)benzamide]	–	–	< 6.00	> 6.70	> 6.70
c1cc2cnc(NC3CCNCC3)nc2nc1N1CCCC1 [Example II-49, N-(piperidin-4-yl)-7-(pyrrolidin-1-yl)pyrido[2,3-d]pyrimidin-2-amine]	> 1000 nM	–	–	–	–
c1cc2cnc(NC3CCNCC3)nc2nc1C1CC1 [Example II-40, 7-cyclopropyl-N-(piperidin-4-yl)pyrido[2,3-d]pyrimidin-2-amine]	> 1000 nM	–	–	–	–
Cc1cc(NC(=O)c2cccc(-n3cc(NC(=O)Nc4ccccc4Cl)cn3)c2)ccn1 [Example I-10, 3-(4-(3-(2-chlorophenyl)ureido)-1H-pyrazol-1-yl)-N-(2-methylpyridin-4-yl)benzamide]	–	–	< 6.00	> 6.70	> 6.70
Cc1cccc(CNC(=O)c2cccc(-n3cc(NC(=O)Nc4ccccc4Cl)cn3)c2)n1 [Example I-11, 3-(4-(3-(2-chlorophenyl)ureido)-1H-pyrazol-1-yl)-N-((6-methylpyridin-2-yl)methyl)benzamide]	–	–	< 6.00	6.00 to 6.70	6.00 to 6.70
CC(C)NC(=O)N1CCC(Nc2ncc3ccc(=O)n(C4CCCC4)c3n2)CC1 [Example II-21, 4-(8-Cyclopentyl-7-oxo-7,8-dihydro-pyrido[2,3-d]pyrimidin-2-ylamino)-piperidine-1-carboxylic acid isopropylamide]	200 to 1000 nM	200 to 1000 nM	–	–	–
Cc1ccc(-c2ncn(-c3ccc(Nc4nccc(-c5cccc(N6CCOCC6)c5)n4)cc3)n2)cn1 [SR-3306, reference compound]	–	–	–	6.00 to 6.70	–
O=C(Nc1cnn(-c2cccc(C(=O)Nc3cnn(CCN4CCCC4)c3)c2)c1)Nc1ccccc1Cl [Example I-101, 3-(4-(3-(2-chlorophenyl)ureido)-1H-pyrazol-1-yl)-N-(1-(2-(pyrrolidin-1-yl)ethyl)-1H-pyrazol-4-yl)benzamide]	–	–	< 6.00	> 6.70	> 6.70
CC(C)n1c(=O)ccc2cnc(NC3CCN(Cc4ccccc4)CC3)nc21 [Example II-6, 2-(1-Benzyl-piperidin-4-ylamino)-8-isopropyl-8H-pyrido[2,3-d]pyrimidin-7-one]	200 to 1000 nM	> 1000 nM	–	–	–
Cn1ccc(NC(=O)c2cccc(-n3cc(NC(=O)Nc4ccccc4Cl)cn3)c2)n1 [Example I-98, 3-(4-(3-(2-chlorophenyl)ureido)-1H-pyrazol-1-yl)-N-(1-methyl-1H-pyrazol-3-yl)benzamide]	–	–	6.00 to 6.70	> 6.70	> 6.70
Cc1ccc(CNC(=O)c2cccc(-n3cc(NC(=O)Nc4ccccc4Cl)cn3)c2)cn1 [Example I-9, 3-(4-(3-(2-chlorophenyl)ureido)-1H-pyrazol-1-yl)-N-((6-methylpyridin-3-yl)methyl)benzamide]	–	–	< 6.00	6.00 to 6.70	6.00 to 6.70
